# Experimental data taken from US10227668B2, “Method for preparing fructose or xylulose from biomass containing glucose or xylose using butanol, and method for separating the same” (KOREA RESEARCH INSTITUTE OF CHEMICAL TECHNOLOGY, priority 2016, dated 2019).
# Experiments:
# [1] = Solubility in 1-butanol; type: physicochemical; details: per 100 g 1-butanol, 50° C.
# Description: As a result, glucose having remarkably low solubility at the corresponding temperature can be selectively crystallized, thereby easily separating the glucose by filtration.
# [2] = @ 40° C.; cited from earlier work
# [3] = @ 40° C.; cited from earlier work; remark: listed apart in the source
smiles,measurement,setting,value
O=C(CO)[C@@H](O)[C@H](O)[C@H](O)CO [fructose],solubility in 1-butanol,[1],32 g
same,solubility in methanol,[2],229.7 mg/mL
same,solubility in ethanol,[3],36.3 mg/mL
